# Data: PubChem BioAssay AID256 (DTP/NCI, 2004)
# Toxic doses and inconclusive results are not listed.
# System: CD2F1 mice, L1210 leukemia ip, survival T/C
# Assay: NCI In Vivo Anticancer Drug Screen. Data for tumor model L1210 Leukemia (intraperitoneal) in CD2F1 (CDF1) mice
# Settings: higher = longer survival
# How it was run: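 In this screen, transplantable tumors were grown in mice given either the compound or its vehicle. Results were expressed as the treated measurement relative to the control measurement.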
# [1] = endpoint: mean survival time, dose: 100.0 mg/kg/injection, schedule: Q04DX002 (ip), vehicle: saline with Tween-80
# [2] = endpoint: mean survival time, dose: 200.0 mg/kg/injection, schedule: Q04DX002 (ip), vehicle: saline with Tween-80
# [3] = endpoint: mean survival time, dose: 100.0 mg/kg/injection, schedule: Q04DX003 (ip), vehicle: saline with Tween-80
# [4] = endpoint: mean survival time, dose: 200.0 mg/kg/injection, schedule: Q04DX003 (ip), vehicle: saline with Tween-80
# [5] = endpoint: mean survival time, dose: 400.0 mg/kg/injection, schedule: Q04DX003 (ip), vehicle: saline with Tween-80
# [6] = endpoint: mean survival time, dose: 100.0 mg/kg/injection, schedule: Q01DX001 (ip), vehicle: saline with Tween-80
# [7] = endpoint: mean survival time, dose: 200.0 mg/kg/injection, schedule: Q01DX001 (ip), vehicle: saline with Tween-80
# [8] = endpoint: mean survival time, dose: 400.0 mg/kg/injection, schedule: Q01DX001 (ip), vehicle: saline with Tween-80
# [9] = endpoint: mean survival time, dose: 100.0 mg/kg/injection, schedule: Q04DX003 (ip), vehicle: saline
# [10] = endpoint: mean survival time, dose: 200.0 mg/kg/injection, schedule: Q04DX003 (ip), vehicle: saline
# [11] = endpoint: mean survival time, dose: 400.0 mg/kg/injection, schedule: Q04DX003 (ip), vehicle: saline
# [12] = endpoint: mean survival time, dose: 100.0 mg/kg/injection, schedule: Q01DX009 (ip), vehicle: saline with Tween-80
# [13] = endpoint: mean survival time, dose: 200.0 mg/kg/injection, schedule: Q01DX009 (ip), vehicle: saline with Tween-80
# [14] = endpoint: mean survival time, dose: 400.0 mg/kg/injection, schedule: Q01DX009 (ip), vehicle: saline with Tween-80
# [15] = endpoint: mean survival time, dose: 12.5 mg/kg/injection, schedule: Q01DX005 (ip), vehicle: other
# [16] = endpoint: mean survival time, dose: 25.0 mg/kg/injection, schedule: Q01DX005 (ip), vehicle: other
# [17] = endpoint: mean survival time, dose: 100.0 mg/kg/injection, schedule: Q01DX001 (ip), vehicle: saline
# [18] = endpoint: mean survival time, dose: 200.0 mg/kg/injection, schedule: Q01DX001 (ip), vehicle: saline
# [19] = endpoint: mean survival time, dose: 400.0 mg/kg/injection, schedule: Q01DX001 (ip), vehicle: saline
# [20] = endpoint: mean survival time, dose: 50.0 mg/kg/injection, schedule: Q01DX009 (ip), vehicle: Klucel (hydroxypropylcellulose) (HPC)
# [21] = endpoint: mean survival time, dose: 100.0 mg/kg/injection, schedule: Q01DX009 (ip), vehicle: Klucel (hydroxypropylcellulose) (HPC)
smiles,measurement,setting,value
O=C1C(Cl)=C(Cl)C(=O)c2ccccc21,T/C,"endpoint: mean survival time, dose: 5.0 mg/kg/injection, schedule: Q04DX003 (ip), vehicle: saline with Tween-80",98 % of control
same,T/C,"endpoint: mean survival time, dose: 10.0 mg/kg/injection, schedule: Q04DX003 (ip), vehicle: saline with Tween-80",93 % of control
same,T/C,"endpoint: mean survival time, dose: 20.0 mg/kg/injection, schedule: Q04DX003 (ip), vehicle: saline with Tween-80",101 % of control
NC(=O)CCc1ccnc2ccccc12,T/C,[1],96 % of control
same,T/C,[2],92 % of control
CC(=O)NC(CSCC(=O)c1ccccc1)C(=O)O (centres undefined),T/C,[3],98 % of control
same,T/C,[4],102 % of control
same,T/C,[5],100 % of control
CCCCCCOC(=O)C(O)c1ccccc1 (centres undefined),T/C,[3],103 % of control
same,T/C,[4],103 % of control
same,T/C,[5],97 % of control
O=[N+]([O-])c1ccc(C(O)C(O)c2ccccc2)cc1 (centres undefined),T/C,[6],96 % of control
same,T/C,[7],92 % of control
same,T/C,[8],95 % of control
CC(=O)N1CCC(Cc2ccccc2)CC1,T/C,[9],97 % of control
same,T/C,[10],94 % of control
same,T/C,[11],95 % of control
O=C(c1ccc(F)cc1)c1ccc([N+](=O)[O-])cc1,T/C,[12],103 % of control
same,T/C,[13],102 % of control
same,T/C,[14],97 % of control
CCCc1nc2[nH]c(N)nc(=S)c2[nH]1,T/C,[15],100 % of control
same,T/C,[16],108 % of control
CC(C)=C(c1ccccc1)c1c(N)ncnc1Cl,T/C,[17],97 % of control
same,T/C,[18],95 % of control
same,T/C,[19],100 % of control
N#CC(C#N)C(O)c1c[nH]c2ccccc12 (centres undefined),T/C,[6],102 % of control
same,T/C,[7],96 % of control
same,T/C,[8],94 % of control
Cc1ccc(S(=O)(=O)Oc2cc([N+](=O)[O-])ccc2N)cc1,T/C,[9],95 % of control
same,T/C,[10],100 % of control
same,T/C,[11],103 % of control
Cn1c(=O)c2c(nc(NN)n2C)n(C)c1=O,T/C,"endpoint: mean survival time, dose: 12.5 mg/kg/injection, schedule: Q01DX005 (ip), vehicle: distilled water + Tween-80",100 % of control
same,T/C,"endpoint: mean survival time, dose: 25.0 mg/kg/injection, schedule: Q01DX005 (ip), vehicle: distilled water + Tween-80",100 % of control
same,T/C,"endpoint: mean survival time, dose: 50.0 mg/kg/injection, schedule: Q01DX005 (ip), vehicle: distilled water + Tween-80",103 % of control
same,T/C,"endpoint: mean survival time, dose: 100.0 mg/kg/injection, schedule: Q01DX005 (ip), vehicle: distilled water + Tween-80",89 % of control
same,T/C,"endpoint: mean survival time, dose: 200.0 mg/kg/injection, schedule: Q01DX005 (ip), vehicle: distilled water + Tween-80",101 % of control
COc1ccc(OC)c(NC(=O)Nc2ccc(S(N)(=O)=O)cc2)c1,T/C,[12],98 % of control
same,T/C,[13],93 % of control
same,T/C,[14],96 % of control
CCOCCSc1ccccc1,T/C,[17],104 % of control
same,T/C,[18],102 % of control
same,T/C,[19],102 % of control
O.[Cl][Pt].[S-]CCN1CCCCC1,T/C,"endpoint: mean survival time, dose: 12.5 mg/kg/injection, schedule: Q04DX003 (ip), vehicle: distilled water + Tween-80",96 % of control
same,T/C,"endpoint: mean survival time, dose: 25.0 mg/kg/injection, schedule: Q04DX003 (ip), vehicle: distilled water + Tween-80",100 % of control
same,T/C,"endpoint: mean survival time, dose: 50.0 mg/kg/injection, schedule: Q04DX003 (ip), vehicle: distilled water + Tween-80",98 % of control
same,T/C,"endpoint: mean survival time, dose: 100.0 mg/kg/injection, schedule: Q04DX003 (ip), vehicle: distilled water + Tween-80",90 % of control
same,T/C,"endpoint: mean survival time, dose: 200.0 mg/kg/injection, schedule: Q04DX003 (ip), vehicle: distilled water + Tween-80",93 % of control
Fc1ccc(N2CCNCC2)cc1,T/C,"endpoint: mean survival time, dose: 12.5 mg/kg/injection, schedule: Q04DX003 (ip), vehicle: saline",101 % of control
same,T/C,"endpoint: mean survival time, dose: 25.0 mg/kg/injection, schedule: Q04DX003 (ip), vehicle: saline",103 % of control
same,T/C,"endpoint: mean survival time, dose: 50.0 mg/kg/injection, schedule: Q04DX003 (ip), vehicle: saline",92 % of control
CN(C)c1ccc(OC(=O)c2cc3ccccc3cc2O)cc1,T/C,[20],112 % of control
same,T/C,[21],108 % of control
same,T/C,"endpoint: mean survival time, dose: 200.0 mg/kg/injection, schedule: Q01DX009 (ip), vehicle: Klucel (hydroxypropylcellulose) (HPC)",101 % of control
ClCc1ccc(Cl)c(Cl)c1,T/C,"endpoint: mean survival time, dose: 100.0 mg/kg/injection, schedule: Q04DX003 (ip), vehicle: Klucel (hydroxypropylcellulose) (HPC)",102 % of control
same,T/C,"endpoint: mean survival time, dose: 200.0 mg/kg/injection, schedule: Q04DX003 (ip), vehicle: Klucel (hydroxypropylcellulose) (HPC)",102 % of control
same,T/C,"endpoint: mean survival time, dose: 400.0 mg/kg/injection, schedule: Q04DX003 (ip), vehicle: Klucel (hydroxypropylcellulose) (HPC)",102 % of control
CN(C)c1nc(N)nc(-c2ccncc2)n1,T/C,"endpoint: mean survival time, dose: 12.0 mg/kg/injection, schedule: Q04DX002 (ip), vehicle: saline",100 % of control
same,T/C,"endpoint: mean survival time, dose: 24.0 mg/kg/injection, schedule: Q04DX002 (ip), vehicle: saline",96 % of control
same,T/C,"endpoint: mean survival time, dose: 48.0 mg/kg/injection, schedule: Q04DX002 (ip), vehicle: saline",92 % of control
O=C1CC(=O)C(CCc2cccc3ccccc23)C1=O (centres undefined),T/C,[6],86 % of control
same,T/C,[1],100 % of control
same,T/C,[7],94 % of control
same,T/C,[2],93 % of control
same,T/C,[8],105 % of control
CCCCCCNc1nc(NCCCCCC)c2[nH]c(NCCCCCC)nc2n1,T/C,"endpoint: median survival time, dose: 25.0 mg/kg/injection, schedule: Q01DX009 (ip), vehicle: saline with Tween-80",107 % of control
same,T/C,"endpoint: median survival time, dose: 50.0 mg/kg/injection, schedule: Q01DX009 (ip), vehicle: saline with Tween-80",107 % of control
same,T/C,"endpoint: median survival time, dose: 100.0 mg/kg/injection, schedule: Q01DX009 (ip), vehicle: saline with Tween-80",106 % of control
same,T/C,"endpoint: median survival time, dose: 200.0 mg/kg/injection, schedule: Q01DX009 (ip), vehicle: saline with Tween-80",105 % of control
CN=NNc1ccc(C(N)=O)cc1,T/C,"endpoint: mean survival time, dose: 18.75 mg/kg/injection, schedule: Q01DX009 (ip), vehicle: saline",100 % of control
same,T/C,"endpoint: mean survival time, dose: 37.5 mg/kg/injection, schedule: Q01DX009 (ip), vehicle: saline",109 % of control
same,T/C,"endpoint: mean survival time, dose: 75.0 mg/kg/injection, schedule: Q01DX009 (ip), vehicle: saline",101 % of control
same,T/C,"endpoint: mean survival time, dose: 150.0 mg/kg/injection, schedule: Q01DX009 (ip), vehicle: saline",96 % of control
same,T/C,"endpoint: mean survival time, dose: 300.0 mg/kg/injection, schedule: Q01DX009 (ip), vehicle: saline",100 % of control
COc1cccc2c1C(=O)c1c(O)c3c(c(O)c1C2=O)C[C@@](O)(C(=O)CO)C[C@@H]3OC1CC(N)CC(C)O1 (some centres undefined),T/C,"endpoint: median survival time, dose: 0.75 mg/kg/injection, schedule: Q01DX009 (ip), vehicle: water",154 % of control
same,T/C,"endpoint: median survival time, dose: 1.5 mg/kg/injection, schedule: Q01DX009 (ip), vehicle: water",200 % of control
same,T/C,"endpoint: median survival time, dose: 3.0 mg/kg/injection, schedule: Q01DX009 (ip), vehicle: water",108 % of control
CC(=O)NC(CC(=O)O)C(=O)NNC(=O)c1ccccc1O (centres undefined),T/C,"endpoint: mean survival time, dose: 25.0 mg/kg/injection, schedule: Q01DX009 (ip), vehicle: Klucel (hydroxypropylcellulose) (HPC)",108 % of control
same,T/C,[20],115 % of control
same,T/C,[21],104 % of control
O=[n+]1cc2ccccn2cc1-c1ccccc1,T/C,[12],97 % of control
same,T/C,[3],104 % of control
same,T/C,[13],101 % of control
same,T/C,[4],104 % of control
same,T/C,[14],101 % of control
[N-]=[N+]=CC(=O)NCC(=O)NNC(=O)c1ccccc1,T/C,[12],105 % of control
same,T/C,[3],96 % of control
same,T/C,[13],107 % of control
same,T/C,[4],104 % of control
same,T/C,[14],108 % of control
same,T/C,[5],105 % of control
C/C(=N\Nc1ccc([N+](=O)[O-])cc1[N+](=O)[O-])C1CCC(=O)O1 (centres undefined),T/C,"endpoint: mean survival time, dose: 50.0 mg/kg/injection, schedule: Q01DX001 (ip), vehicle: saline with Tween-80",109 % of control
same,T/C,[6],103 % of control
same,T/C,[7],103 % of control
N#CSc1ccc2c(ccn2C2OCC(O)C(O)C2O)c1 (centres undefined),T/C,[15],93 % of control
same,T/C,[16],93 % of control
same,T/C,"endpoint: mean survival time, dose: 50.0 mg/kg/injection, schedule: Q01DX005 (ip), vehicle: other",101 % of control
CCC(C)(C)C1=C(N=[N+]=[N-])C(=O)C(C(C)(C)CC)=C(N=[N+]=[N-])C1=O,T/C,"endpoint: mean survival time, dose: 100.0 mg/kg/injection, schedule: Q01DX001 (ip), vehicle: other",100 % of control
same,T/C,"endpoint: mean survival time, dose: 200.0 mg/kg/injection, schedule: Q01DX001 (ip), vehicle: other",96 % of control
same,T/C,"endpoint: mean survival time, dose: 400.0 mg/kg/injection, schedule: Q01DX001 (ip), vehicle: other",103 % of control
